In patent US7732434B2, “Macrocyclic acyl guanidines as beta-secretase inhibitors” (Bristol-Myers Squibb Company, priority 2007, dated 2010):

test system: not given; assay: not given; settings: from C=CCCCCN(CC(=O)Nc1c(Cl)cc(CN/C(=N/C(=O)c2c(-c3ccc(OCC=C)cc3)noc2C)NC(=O)OC(C)(C)C)cc1Cl)C(=O)OC(C)(C)C; rcm bond; Grubbs Catalyst 2nd Generation; 1,2-dichloroethane; 3.71 mM; 45.0 °C; 2.0 h

**Q.** With `Cc1onc2c1C(=O)N=C(NC(=O)OC(C)(C)C)NCc1cc(Cl)c(c(Cl)c1)NC(=O)CN(C(=O)OC(C)(C)C)CCCCC=CCOc1ccc-2cc1` (mixture of isomers) as the compound, how does the ring closure, yield of all isomers read?
**A.** The ring closure, yield of all isomers was 64.9%.

same assay, conditions: from C=CCCCN(CC(=O)Nc1c(Cl)cc(CN/C(=N/C(=O)c2c(-c3ccc(OCC=C)cc3)noc2C)NC(=O)OC(C)(C)C)cc1Cl)C(=O)OC(C)(C)C; rcm bond; Grubbs Catalyst 2nd Generation; 1,2-dichloroethane; 3.94 mM; 40.0 °C; 2.0 h

**Q.** For `Cc1onc2c1C(=O)N=C(NC(=O)OC(C)(C)C)NCc1cc(Cl)c(c(Cl)c1)NC(=O)CN(C(=O)OC(C)(C)C)CCCC=CCOc1ccc-2cc1`, which ring closure, yield of all isomers is on record?
**A.** The ring closure, yield of all isomers was 69.9%.

same assay, conditions: from C=CCCCN(CC(=O)Nc1c(Cl)cc(CN/C(=N/C(=O)c2c(-c3ccc(OCC=C)cc3)nsc2C)NC(=O)OC(C)(C)C)cc1Cl)C(=O)OC(C)(C)C; rcm bond; Grubbs Catalyst 1st Generation; 1,2-dichloroethane; 3.04 mM; 70.0 °C; 6.0 h

**Q.** For `Cc1snc2c1C(=O)N=C(NC(=O)OC(C)(C)C)NCc1cc(Cl)c(c(Cl)c1)NC(=O)CN(C(=O)OC(C)(C)C)CCCC=CCOc1ccc-2cc1`, which ring closure, yield of all isomers is on record?
**A.** The ring closure, yield of all isomers was 68%.

same assay, conditions: from C=CCOc1ccc(-c2noc(C)c2C(=O)/N=C(/NCc2cc(Cl)c(NC(=O)CN(CC=C)C(=O)OC(C)(C)C)c(Cl)c2)NC(=O)OC(C)(C)C)cc1; rcm bond; Grubbs Catalyst 2nd Generation; 1,2-dichloroethane; 5.84 mM; 45.0 °C; 2.0 h

**Q.** With `Cc1onc2c1C(=O)N=C(NC(=O)OC(C)(C)C)NCc1cc(Cl)c(c(Cl)c1)NC(=O)CN(C(=O)OC(C)(C)C)CC=CCOc1ccc-2cc1` as the compound, how does the ring closure, yield of all isomers read?
**A.** Its ring closure, yield of all isomers is 53%.

molecular target: T1, BACE1 enzyme (Homo sapiens, UniProt P56817); assay: Radioligand displacement assay with a radiolabeled BACE inhibitor, HEK293-9B.A1 cell homogenate; type: binding; settings: displacement of 1 nM radioligand, HEK293-9B.A1 homogenate, pH 5.0, 1.5 hr at 25° C.; read-out: Activity Rating (activity based on IC50 values)
T1 construct: The HEK293-9B.A1 cell line, which overexpresses the BACE1 enzyme, was derived from HEK293 cells; endogenous in cells; washed 48,000 x g pellet of cell homogenate
T1 sequence (P56817 46-501): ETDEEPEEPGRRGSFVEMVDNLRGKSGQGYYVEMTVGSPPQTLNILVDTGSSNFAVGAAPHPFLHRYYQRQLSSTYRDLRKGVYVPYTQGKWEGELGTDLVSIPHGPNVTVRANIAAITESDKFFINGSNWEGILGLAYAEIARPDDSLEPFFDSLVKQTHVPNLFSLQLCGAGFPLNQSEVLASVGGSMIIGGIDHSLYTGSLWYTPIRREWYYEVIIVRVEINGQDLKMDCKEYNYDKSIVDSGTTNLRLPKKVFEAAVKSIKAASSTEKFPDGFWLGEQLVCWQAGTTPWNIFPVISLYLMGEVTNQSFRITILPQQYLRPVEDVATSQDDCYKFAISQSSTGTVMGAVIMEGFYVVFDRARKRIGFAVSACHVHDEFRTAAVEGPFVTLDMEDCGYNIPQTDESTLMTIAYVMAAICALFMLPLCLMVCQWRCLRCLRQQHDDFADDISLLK
Experimental: Radioligand displacement assays with a radiolabeled BACE inhibitor (WO 2004 013098, compound 3, where the methoxy group is substituted for C(^3H)3) were carried out using standard methods (Keen, M. (1999) in Receptor Binding Techniques (Walker, J. M. ed) p. 106Humana Press, Totowa, N.J.). The HEK293-9B.A1 cell line, which overexpresses the BACE1 enzyme, was derived from HEK293 cells (Simmons, N. L. (1990) A cultured human renal epithelioid cell line responsive to vasoactive intestinal peptide. Exp. Physiol. 75:309-19.) by RAGE™ (Harrington, J. J. et al. (2001) Creation of genome-wide protein expression libraries using random activation of gene expression. Nat. Biotechnol. 19:440-5.; U.S. Pat. Nos. 6,410,266 and 6,361,972). T225 flask cultures of HEK293-9B.A1 were grown to 80% confluency in DMEM supplemented with 2 mM L-glutamine, 10 μg/ml penicillin, 10 μg/ml streptomycin, 3 μg/ml puromycin, 100 nM methotrexate, and 10% fetal bovine serum (Invitrogen, Carlsbad, Calif.), harvested, and resuspended at 2×10^8 cells per 10 ml of lysis buffer consisting of 50 mM HEPES pH 7.0 containing a protease inhibitor cocktail of AEBSF 104 μM, aprotinin 80 nM, leupeptin 2 μM, bestatin 4 μM, pepstatin A 1.5 μM, and E-64 1.4 μM (0.1% of protease inhibitor cocktail P8340, Sigma-Aldrich, St. Louis, Mo.) at 4° C. The resuspended cells were homogenized using a Polytron (Brinkman, Westbury, N.Y.) at setting 6 for 10 sec., then centrifuged at 48,000×g for 10 min. The resulting pellet was washed by repeating the resuspension, homogenization and centrifugation steps. The final pellet was resuspended in buffer at 4° C. to yield a total protein concentration of 5 mg/ml, then aliquots were frozen in liquid nitrogen for further storage at −70° C. Immediately before carrying out a binding assay, an aliquot of cell homogenate was thawed and diluted to a concentration of 100 μg/ml in assay buffer consisting of 50 mM HEPES pH 5.0 and 0.1% CHAPSO. Assays were initiated in polypropylene 96-well plates (Costar, Cambridge, Mass.) by the addition of 200 μl of cell homogenate to 50 μl of assay buffer containing 1 nM radioligand (WO 2004 013098, compound 3, where the methoxy group is substituted for C(^3H)3: 80 Ci/mMol) and various concentrations of unlabelled compounds, and incubated for 1.5 hr. at 25° C. Separation of bound from free radioligand was by filtration on GFF glass fiber filters (Innotech Biosystems International, Lansing, Mich.) using an Innotech cell harvester. Filters were washed three times with 0.3 ml of phosphate buffered saline pH 7.0 at 4° C. and assessed for radioactivity using a Wallac 1450 Microbeta liquid scintillation counter (PerkinElmer, Boston, Mass.). Ki values of competing compounds were derived through Cheng-Prussoff correction of IC50 values calculated using XLfit (IDBS, Guildford, UK).

**Q.** With `Cc1onc2c1C(=O)/N=C(\N)NCc1cc(Cl)c(c(Cl)c1)NC(=O)CNCC=CCOc1ccc-2cc1` [Example 1, 9-Amino-14,30-dichloro-5-methyl-4,24-dioxa-3,8,10,16,19-pentaazatetracyclo-[23.2.2.2^12,15.0^2,6]hentriaconta-1(27),2,5,8,12,14,21,25,28,30-decaene-7,17-dione] as the compound, how does the IC50 read?
**A.** Its IC50 is over 50 nM.

**Q.** For `Cc1snc2c1C(=O)/N=C(\N)NCc1cc(Cl)c(c(Cl)c1)NC(=O)CNCCCCCOc1ccc-2cc1` [Example 9, 9-Amino-14,31-dichloro-5-methyl-25-oxa-4-thia-3,8,10,16,19-pentaazatetracyclo[24.2.2.2^12,15.0^2,6]dotriaconta-1(28),2,5,8,12,14,26,29,31-nonaene-7,17-dione], which IC50 is on record?
**A.** The IC50 was under 5 nM.

**Q.** For `Cc1onc2c1C(=O)/N=C(\N)NCc1cc(Cl)c(c(Cl)c1)NC(=O)CNCC/C=C/COc1ccc-2cc1` [Example 2, (22E)-9-Amino-14,31-dichloro-5-methyl-4,25-dioxa-3,8,10,16,19-pentaazatetracyclo[24.2.2.2^12,15.0^2,6]dotriaconta-1(28),2,5,8,12,14,22,26,29,31-decaene-7,17-dione], which IC50 is on record?
**A.** The IC50 was over 50 nM.

**Q.** Which IC50 does the source give for `Cc1snc2c1C(=O)/N=C(\N)NCc1cc(Cl)c(c(Cl)c1)NC(=O)CNCC/C=C\COc1ccc-2cc1` [Example 8, (22Z)-9-Amino-14,31-dichloro-5-methyl-25-oxa-4-thia-3,8,10,16,19-pentaazatetracyclo[24.2.2.2^12,15.0^2,6]dotriaconta-1(28),2,5,8,12,14,22,26,29,31-decaene-7,17-dione] here?
**A.** The IC50 was under 5 nM.

**Q.** Which IC50 does the source give for `Cc1snc2c1C(=O)/N=C(\N)NCc1cc(Cl)c(c(Cl)c1)NC(=O)CN(Cc1ccccc1)CCCC=CCOc1ccc-2cc1` [Example 6, 9-Amino-19-benzyl-14,32-dichloro-5-methyl-26-oxa-4-thia-3,8,10,16,19-pentaazatetracyclo[25.2.2.2^12,15.0^2,6]tritriaconta-1(29),2,5,8,12,14,23,27,30,32-decaene-7,17-dione] here?
**A.** Its IC50 is 5 to 50 nM.

**Q.** With `Cc1onc2c1C(=O)/N=C(\N)NCc1ccc(cc1)NC(=O)CNCCC/C=C\COc1ccc-2cc1` [Example 10, (23Z)-9-Amino-5-methyl-4,26-dioxa-3,8,10,16,19-pentaazatetracyclo-[25.2.2.2^12,15.0^2,6]tritriaconta-1(29),2,5,8,12,14,23,27,30,32-decaene-7,17-dione] as the compound, how does the IC50 read?
**A.** Its IC50 is under 5 nM.

**Q.** Which IC50 does the source give for `Cc1onc2c1C(=O)N=C(N)NCc1ccc(c(Cl)c1)NC(=O)CNCCC/C=C\COc1ccc-2cc1` [Example 11, (23Z)-9-Amino-14-chloro-5-methyl-4,26-dioxa-3,8,10,16,19-pentaazatetracyclo-[25.2.2.2^12,5.0^2,6]tritriaconta-1(29),2,5,8,12,14,23,27,30,32-decaene-7,17-dione] here?
**A.** The IC50 was under 5 nM.

**Q.** With `Cc1onc2c1C(=O)/N=C(\N)NCc1cc(Cl)c(c(Cl)c1)NC(=O)CNCCC/C=C\COc1ccc-2cc1` [Example 3, 9-Amino-14,32-dichloro-5-methyl-4,26-dioxa-3,8,10,16,19-pentaazatetracyclo-[25.2.2.2^12,15.0^2,6]tritriaconta-1(29),2,5,8,12,14,23,27,30,32-decaene-7,17-dione] as the compound, how does the IC50 read?
**A.** Its IC50 is 5 to 50 nM.

**Q.** For `Cc1onc2c1C(=O)/N=C(\N)NCc1cc(Cl)c(c(Cl)c1)NC(=O)CNCCCC/C=C\COc1ccc-2cc1` [Example 7, (24Z)-9-Amino-14,33-dichloro-5-methyl-4,27-dioxa-3,8,10,16,19-pentaazatetracyclo[26.2.2.2^12,15.0^2,6]tetratriaconta-1(30),2,5,8,12,14,24,28,31,33-decaene-7,17-dione], which IC50 is on record?
**A.** The IC50 was under 5 nM.

**Q.** With `Cc1snc2c1C(=O)/N=C(\N)NCc1cc(Cl)c(c(Cl)c1)NC(=O)CNCCCCCCOc1ccc-2cc1` [Example 5, 9-Amino-14,32-dichloro-5-methyl-26-oxa-4-thia-3,8,10,16,19-pentaazatetracyclo[25.2.2.2^12,15.0^2,6]tritriaconta-1(29),2,5,8,12,14,27,30,32-nonaene-7,17-dione] as the compound, how does the IC50 read?
**A.** Its IC50 is 5 to 50 nM.

**Q.** With `Cc1snc2c1C(=O)/N=C(\N)NCc1cc(Cl)c(c(Cl)c1)NC(=O)CNCCCC=CCOc1ccc-2cc1` [Example 4, 9-Amino-14,32-dichloro-5-methyl-26-oxa-4-thia-3,8,10,16,19-pentaazatetracyclo[25.2.2.2^12,15.0^2,6]tritriaconta-1(29),2,5,8,12,14,23,27,30,32-decaene-7,17-dione] as the compound, how does the IC50 read?
**A.** Its IC50 is 5 to 50 nM.
